Data from PubChem BioAssay (NCI).
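Cultured in 96-well plates, cells were exposed to test compound for 48 hours across five concentrations. Abbreviation: GI50, concentration required for 50% inhibition of growth. TGI marks complete inhibition of growth.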

How the values were obtained:
Experiment in all cases: NCI anticancer screen, dose series, 48 h; in the data active = GI50 below about 0.43 µM; inactive = the rest
HCT-116 colon = tested on: HCT-116 colon
OVCAR-8 ovarian = tested on: OVCAR-8 ovarian
A498 renal = tested on: A498 renal
U251 CNS = tested on: U251 CNS
NCI-H460 lung = tested on: NCI-H460 lung
LOX IMVI melanoma = tested on: LOX IMVI melanoma
K-562 leukemia = tested on: K-562 leukemia
HCT-15 colon = tested on: HCT-15 colon
HT29 colon = tested on: HT29 colon
UO-31 renal = tested on: UO-31 renal
BT-549 breast = tested on: BT-549 breast
RPMI-8226 leukemia = tested on: RPMI-8226 leukemia
MOLT-4 leukemia = tested on: MOLT-4 leukemia
SK-OV-3 ovarian = tested on: SK-OV-3 ovarian
SK-MEL-2 melanoma = tested on: SK-MEL-2 melanoma
SNB-19 CNS = tested on: SNB-19 CNS
UACC-62 melanoma = tested on: UACC-62 melanoma
RXF 393 renal = tested on: RXF 393 renal
CAKI-1 renal = tested on: CAKI-1 renal
SW-620 colon = tested on: SW-620 colon
HOP-92 NSCLC = tested on: HOP-92 NSCLC
MALME-3M melanoma = tested on: MALME-3M melanoma
NCI-H23 lung = tested on: NCI-H23 lung
CCRF-CEM leukemia = tested on: CCRF-CEM leukemia
T-47D breast = tested on: T-47D breast
HCC-2998 colon = tested on: HCC-2998 colon
PC-3 prostate = tested on: PC-3 prostate
UACC-257 melanoma = tested on: UACC-257 melanoma
SN12C renal = tested on: SN12C renal
KM12 colon = tested on: KM12 colon
MDA-MB-231 breast = tested on: MDA-MB-231 breast
OVCAR-5 ovarian = tested on: OVCAR-5 ovarian
M14 melanoma = tested on: M14 melanoma
MDA-MB-435 = tested on: MDA-MB-435
SK-MEL-5 melanoma = tested on: SK-MEL-5 melanoma
DU-145 prostate = tested on: DU-145 prostate
786-0 renal = tested on: 786-0 renal
TK-10 renal = tested on: TK-10 renal
HOP-62 NSCLC = tested on: HOP-62 NSCLC
NCI/ADR-RES ovarian = tested on: NCI/ADR-RES ovarian
EKVX NSCLC = tested on: EKVX NSCLC
OVCAR-4 ovarian = tested on: OVCAR-4 ovarian
SR leukemia = tested on: SR leukemia
SNB-75 CNS = tested on: SNB-75 CNS
OVCAR-3 ovarian = tested on: OVCAR-3 ovarian
SK-MEL-28 melanoma = tested on: SK-MEL-28 melanoma
SF-539 CNS = tested on: SF-539 CNS
ACHN renal = tested on: ACHN renal
MCF7 breast = tested on: MCF7 breast
SF-268 CNS = tested on: SF-268 CNS
SF-295 CNS = tested on: SF-295 CNS
A549 NSCLC = tested on: A549 NSCLC
NCI-H226 lung = tested on: NCI-H226 lung
NCI-H522 lung = tested on: NCI-H522 lung
COLO 205 colon = tested on: COLO 205 colon
HS 578T breast = tested on: HS 578T breast
IGROV1 ovarian = tested on: IGROV1 ovarian
HL-60(TB) leukemia = tested on: HL-60(TB) leukemia

Cc1cc(Oc2ccc3nc(COc4ccc(CC5SC(=O)NC5=O)cc4)n(C)c3c2)cc(C)c1N (stereo unspecified)
> 85.3 µM: TGI (HCT-116 colon)
> 78.3 µM: TGI (M14 melanoma)
> 90.1 µM: TGI (PC-3 prostate)
> 75.5 µM: TGI (UACC-257 melanoma)
> 86.5 µM: TGI (OVCAR-8 ovarian)
72.4 µM: TGI (UACC-62 melanoma)
> 66.9 µM: TGI (T-47D breast)
> 70.9 µM: TGI (OVCAR-3 ovarian)
32.5 µM: TGI (SK-MEL-5 melanoma)
> 76.2 µM: TGI (KM12 colon)
> 81.6 µM: TGI (UO-31 renal)
> 79.2 µM: TGI (BT-549 breast)
88 µM: TGI (HL-60(TB) leukemia)
45.4 µM: TGI (RPMI-8226 leukemia)
> 100 µM: TGI (A498 renal) | TGI (K-562 leukemia) | TGI (HT29 colon) | TGI (SK-OV-3 ovarian) | TGI (SNB-19 CNS) | TGI (RXF 393 renal) | TGI (CAKI-1 renal) | TGI (SW-620 colon) | TGI (MALME-3M melanoma) | TGI (CCRF-CEM leukemia) | TGI (HCC-2998 colon) | TGI (SN12C renal) | TGI (MDA-MB-231 breast) | TGI (OVCAR-5 ovarian) | TGI (MDA-MB-435) | TGI (DU-145 prostate) | TGI (786-0 renal) | TGI (HOP-62 NSCLC) | TGI (NCI/ADR-RES ovarian) | TGI (EKVX NSCLC) | TGI (OVCAR-4 ovarian) | TGI (SR leukemia) | TGI (SK-MEL-28 melanoma) | TGI (ACHN renal) | TGI (SF-268 CNS) | TGI (SF-295 CNS) | TGI (COLO 205 colon) | TGI (HS 578T breast) | TGI (IGROV1 ovarian)
> 72.7 µM: TGI (SNB-75 CNS)
> 87.8 µM: TGI (HCT-15 colon)
> 87.5 µM: TGI (HOP-92 NSCLC)
69.5 µM: TGI (MOLT-4 leukemia)
> 91.6 µM: TGI (TK-10 renal)
> 90.7 µM: TGI (NCI-H460 lung)
inactive: GI50 (HCT-116 colon) 26.7 µM | GI50 (OVCAR-8 ovarian) 31.2 µM | GI50 (A498 renal) > 43.4 µM | GI50 (U251 CNS) 32.2 µM | GI50 (NCI-H460 lung) 26.6 µM | GI50 (LOX IMVI melanoma) 17.2 µM | GI50 (K-562 leukemia) 35.4 µM | GI50 (HCT-15 colon) 29.1 µM | GI50 (HT29 colon) 45.2 µM | GI50 (UO-31 renal) 24.8 µM | GI50 (BT-549 breast) 24.2 µM | GI50 (RPMI-8226 leukemia) 9.73 µM | GI50 (MOLT-4 leukemia) 26.4 µM | GI50 (SK-OV-3 ovarian) > 66.1 µM | GI50 (SK-MEL-2 melanoma) > 49.4 µM | GI50 (SNB-19 CNS) 42.2 µM | GI50 (UACC-62 melanoma) 22.5 µM | GI50 (RXF 393 renal) 50.8 µM | GI50 (CAKI-1 renal) 30.9 µM | GI50 (SW-620 colon) 30.6 µM | GI50 (HOP-92 NSCLC) > 34.4 µM | GI50 (MALME-3M melanoma) > 53.3 µM | GI50 (NCI-H23 lung) 24.2 µM | GI50 (CCRF-CEM leukemia) 30.9 µM | GI50 (T-47D breast) 25.7 µM | GI50 (HCC-2998 colon) 54.9 µM | GI50 (PC-3 prostate) 31.8 µM | GI50 (UACC-257 melanoma) 30.8 µM | GI50 (SN12C renal) 44.1 µM | GI50 (KM12 colon) 26.5 µM | GI50 (MDA-MB-231 breast) 45.4 µM | GI50 (OVCAR-5 ovarian) > 63.7 µM | GI50 (M14 melanoma) 29.6 µM | GI50 (MDA-MB-435) 27.4 µM | GI50 (SK-MEL-5 melanoma) 15.6 µM | GI50 (DU-145 prostate) 45.8 µM | GI50 (786-0 renal) 49.9 µM | GI50 (TK-10 renal) > 52.6 µM | GI50 (HOP-62 NSCLC) 48.7 µM | GI50 (NCI/ADR-RES ovarian) 32.5 µM | GI50 (EKVX NSCLC) 39 µM | GI50 (OVCAR-4 ovarian) 34.2 µM | GI50 (SR leukemia) 31.7 µM | GI50 (SNB-75 CNS) 27.6 µM | GI50 (OVCAR-3 ovarian) 28 µM | GI50 (SK-MEL-28 melanoma) 49.7 µM | GI50 (SF-539 CNS) 43.3 µM | GI50 (ACHN renal) 48.9 µM | GI50 (MCF7 breast) 27.6 µM | GI50 (SF-268 CNS) 46.7 µM | GI50 (SF-295 CNS) 32.5 µM | GI50 (A549 NSCLC) 29.5 µM | GI50 (NCI-H226 lung) 46.8 µM | GI50 (NCI-H522 lung) 33.2 µM | GI50 (COLO 205 colon) 32.1 µM | GI50 (HS 578T breast) > 57.3 µM | GI50 (IGROV1 ovarian) > 64.3 µM | GI50 (HL-60(TB) leukemia) 26.8 µM
> 72.2 µM: TGI (NCI-H23 lung)
> 94 µM: TGI (U251 CNS)
> 95.7 µM: TGI (NCI-H226 lung)
> 73.9 µM: TGI (NCI-H522 lung)
98.9 µM: TGI (MCF7 breast)
> 83.4 µM: TGI (SF-539 CNS)
> 71.3 µM: TGI (LOX IMVI melanoma)
> 87.7 µM: TGI (A549 NSCLC)
> 69.7 µM: TGI (SK-MEL-2 melanoma)
